Reference: publication PMC5218480 (PLoS ONE, 2017)

Tested on: MV-4-11 cells
Test: Gene expression microarray analysis (Affymetrix PrimeView) and GSEA
Assay type: cell-based, human
Design: RFU PODN (11730768_x_at) / Fold change /veh PODN (11730768_x_at) / RFU LINC00158 (11744669_a_at) / Fold change /veh LINC00158 (11744669_a_at) / RFU DUSP10 (11751237_a_at) / Fold change /veh DUSP10 (11751237_a_at) / RFU ID3 (11757404_x_at) / Fold change /veh ID3 (11757404_x_at) / RFU PLEKHG5 (11737974_s_at) / Fold change /veh PLEKHG5 (11737974_s_at) / RFU LRRC4B (11730491_at) / Fold change /veh LRRC4B (11730491_at) / RFU GIMAP4 (11747438_a_at) / Fold change /veh GIMAP4 (11747438_a_at) / RFU KRT8 (11758183_x_at) / Fold change /veh KRT8 (11758183_x_at) / RFU CNN1 (11734310_a_at) / Fold change /veh CNN1 (11734310_a_at) / RFU VPS37D (11726825_at) / Fold change /veh VPS37D (11726825_at) / RFU C10orf10 (11716522_x_at) / Fold change /veh C10orf10 (11716522_x_at) / RFU KIR2DL2 /// KIR2DL4 /// KIR2DL5A /// KIR2DL5B /// KIR2DS1 /// KIR2DS2 /// KIR2DS3 /// KIR2DS4 /// KIR3DL3 /// KIR3DL3 /// KIR3DS1 (11738374_at) / Fold change /veh KIR2DL2 /// KIR2DL4 /// KIR2DL5A /// KIR2DL5B /// KIR2DS1 /// KIR2DS2 /// KIR2DS3 /// KIR2DS4 /// KIR3DL3 /// KIR3DL3 /// KIR3DS1 (11738374_at) / RFU C1QL1 (11718748_at) / Fold change /veh C1QL1 (11718748_at) / RFU TMPRSS4 (11747572_a_at) / Fold change /veh TMPRSS4 (11747572_a_at) / RFU HAMP (11756126_x_at) / Fold change /veh HAMP (11756126_x_at) / RFU RNFT2 (11725882_a_at) / Fold change /veh RNFT2 (11725882_a_at) / RFU NR4A2 (11747474_a_at) / Fold change /veh NR4A2 (11747474_a_at) / RFU ABCC12 (11746883_a_at) / Fold change /veh ABCC12 (11746883_a_at) / RFU TMEM136 (11760407_x_at) / Fold change /veh TMEM136 (11760407_x_at) / RFU CLDN22 /// WWC2 (11732394_at) / Fold change /veh CLDN22 /// WWC2 (11732394_at) / RFU HLA-DPB1 (11760878_x_at) / Fold change /veh HLA-DPB1 (11760878_x_at) / RFU SPINT1 (11716480_a_at) / Fold change /veh SPINT1 (11716480_a_at) / RFU GAP43 (11754022_s_at) / Fold change /veh GAP43 (11754022_s_at) / RFU A4GNT (11735810_at) / Fold change /veh A4GNT (11735810_at) / RFU PRB3 (11715151_x_at) / Fold change /veh PRB3 (11715151_x_at) / RFU TUBB4B (11761932_at) / Fold change /veh TUBB4B (11761932_at) / RFU CAPN14 (11732068_a_at) / Fold change /veh CAPN14 (11732068_a_at) / RFU TMCC2 (11721928_a_at) / Fold change /veh TMCC2 (11721928_a_at) / RFU IRGQ (11745062_a_at) / Fold change /veh IRGQ (11745062_a_at) / RFU FAM174B (11720279_a_at) / Fold change /veh FAM174B (11720279_a_at) / RFU TMPRSS4 (11748680_a_at) / Fold change /veh TMPRSS4 (11748680_a_at) / RFU FAM212B (11763350_a_at) / Fold change /veh FAM212B (11763350_a_at) / RFU PLEKHG5 (11743358_a_at) / Fold change /veh PLEKHG5 (11743358_a_at) / RFU ZSCAN30 (11745921_a_at) / Fold change /veh ZSCAN30 (11745921_a_at) / RFU CMKLR1 (11741424_a_at) / Fold change /veh CMKLR1 (11741424_a_at) / RFU LOC101060620 /// MAPK8IP1 (11723275_at) / Fold change /veh LOC101060620 /// MAPK8IP1 (11723275_at) / RFU SPTSSB (11747773_x_at) / Fold change /veh SPTSSB (11747773_x_at) / RFU PRSS12 (11739890_at) / Fold change /veh PRSS12 (11739890_at) / RFU BIN1 (11741810_x_at) / Fold change /veh BIN1 (11741810_x_at) / RFU WNT11 (11732464_a_at) / Fold change /veh WNT11 (11732464_a_at) / RFU C10orf10 (11716521_a_at) / Fold change /veh C10orf10 (11716521_a_at) / RFU C5orf56 (11738089_at) / Fold change /veh C5orf56 (11738089_at) / RFU CYB561 (11721691_x_at) / Fold change /veh CYB561 (11721691_x_at) / RFU ANKRD19P (11752326_a_at) / Fold change /veh ANKRD19P (11752326_a_at) / RFU OR2T12 /// OR2T33 /// OR2T8 (11738714_s_at) / Fold change /veh OR2T12 /// OR2T33 /// OR2T8 (11738714_s_at) / RFU VCAN (11748164_a_at) / Fold change /veh VCAN (11748164_a_at) / RFU JSRP1 (11732532_at) / Fold change /veh JSRP1 (11732532_at) / RFU KRTAP10-11 (11738290_x_at) / Fold change /veh KRTAP10-11 (11738290_x_at) / RFU MYO3A (11730013_a_at) / Fold change /veh MYO3A (11730013_a_at) / RFU EBF3 (11725865_a_at) / Fold change /veh EBF3 (11725865_a_at) / RFU CAMK2N1 (11719241_x_at) / Fold change /veh CAMK2N1 (11719241_x_at) / RFU C5orf56 (11738088_a_at) / Fold change /veh C5orf56 (11738088_a_at) / RFU OLFML3 (11715873_a_at) / Fold change /veh OLFML3 (11715873_a_at) / RFU LOC100653217 /// NTM (11731650_a_at) / Fold change /veh LOC100653217 /// NTM (11731650_a_at) / RFU MAPK11 (11762145_a_at) / Fold change /veh MAPK11 (11762145_a_at) / RFU FIZ1 (11724087_x_at) / Fold change /veh FIZ1 (11724087_x_at) / RFU OASL (11726364_x_at) / Fold change /veh OASL (11726364_x_at) / RFU SOX15 (11748057_x_at) / Fold change /veh SOX15 (11748057_x_at) / RFU CD79A (11719716_a_at) / Fold change /veh CD79A (11719716_a_at) / RFU HIST1H1D (11736915_at) / Fold change /veh HIST1H1D (11736915_at) / RFU CASKIN2 (11723855_a_at) / Fold change /veh CASKIN2 (11723855_a_at) / RFU LOC730098 (11760151_x_at) / Fold change /veh LOC730098 (11760151_x_at) / RFU OR4N2 (11742367_at) / Fold change /veh OR4N2 (11742367_at) / RFU PRRT2 (11749266_a_at) / Fold change /veh PRRT2 (11749266_a_at) / RFU SNX32 (11753110_a_at) / Fold change /veh SNX32 (11753110_a_at) / RFU CDHR5 (11726645_a_at) / Fold change /veh CDHR5 (11726645_a_at) / RFU RCAN1 (11760418_a_at) / Fold change /veh RCAN1 (11760418_a_at) / RFU FAM167A (11723789_a_at) / Fold change /veh FAM167A (11723789_a_at) / RFU FAM26E (11764081_at) / Fold change /veh FAM26E (11764081_at) / RFU ISYNA1 (11749810_s_at) / Fold change /veh ISYNA1 (11749810_s_at) / RFU ACY1 (11761880_at) / Fold change /veh ACY1 (11761880_at) / RFU 11764098_at / Fold change /veh 11764098_at / RFU SAMD14 (11745864_x_at) / Fold change /veh SAMD14 (11745864_x_at) / RFU NPB (11741838_a_at) / Fold change /veh NPB (11741838_a_at) / RFU TMPRSS6 (11731388_a_at) / Fold change /veh TMPRSS6 (11731388_a_at) / RFU KRTAP10-2 (11738614_at) / Fold change /veh KRTAP10-2 (11738614_at) / RFU ARHGAP8 /// PRR5-ARHGAP8 (11727945_x_at) / Fold change /veh ARHGAP8 /// PRR5-ARHGAP8 (11727945_x_at) / RFU KRTAP5-7 /// NADSYN1 (11734609_at) / Fold change /veh KRTAP5-7 /// NADSYN1 (11734609_at) / RFU RASL12 (11751679_a_at) / Fold change /veh RASL12 (11751679_a_at) / RFU CDKN2B (11736163_a_at) / Fold change /veh CDKN2B (11736163_a_at) / RFU PRF1 (11729649_at) / Fold change /veh PRF1 (11729649_at) / RFU, ZNF638 /// ZNF638-IT1 / Fold change vs veh, ZNF638 /// ZNF638-IT1 / RFU, PANK3 / Fold change vs veh, PANK3 / RFU, SH3YL1 / Fold change vs veh, SH3YL1 / RFU, ZEB2 / Fold change vs veh, ZEB2 / RFU, NRIP1 / Fold change vs veh, NRIP1 / RFU, PTTG1IP / Fold change vs veh, PTTG1IP / RFU, CAPN2 / Fold change vs veh, CAPN2 / RFU, MED14 / Fold change vs veh, MED14 / RFU, SNORA58 / Fold change vs veh, SNORA58 / RFU, C1orf63 / Fold change vs veh, C1orf63 / RFU, LRRFIP1 / Fold change vs veh, LRRFIP1 / RFU, NDUFAF7 / Fold change vs veh, NDUFAF7 / RFU, SLC12A2 / Fold change vs veh, SLC12A2 / RFU, IBTK / Fold change vs veh, IBTK / RFU, ESF1 / Fold change vs veh, ESF1 / Fold change vs veh, TMEM50B / RFU, TAOK1 / Fold change vs veh, TAOK1 / RFU, ACBD3 / Fold change vs veh, ACBD3 / RFU, TMA16 / Fold change vs veh, TMA16 / RFU, RWDD3 / Fold change vs veh, RWDD3 / RFU, BCAT1 / Fold change vs veh, BCAT1 / RFU, EDEM3 / Fold change vs veh, EDEM3 / RFU, TMEM33 / Fold change vs veh, TMEM33 / RFU, WDR75 / Fold change vs veh, WDR75 / RFU, AHCTF1 / Fold change vs veh, AHCTF1 / RFU, TFRC / Fold change vs veh, TFRC / RFU, ZDHHC17 / Fold change vs veh, ZDHHC17 / RFU, NOM1 / Fold change vs veh, NOM1 / RFU, ARL8B / Fold change vs veh, ARL8B / RFU, ZBTB11 / Fold change vs veh, ZBTB11 / RFU, TAMM41 / Fold change vs veh, TAMM41 / RFU, KIAA1704 /// LOC100996395 / Fold change vs veh, KIAA1704 /// LOC100996395 / RFU, ING1 / Fold change vs veh, ING1 / RFU, TRMT61B / Fold change vs veh, TRMT61B / RFU, FUBP3 / Fold change vs veh, FUBP3 / RFU, TP53 / Fold change vs veh, TP53 / RFU, TNKS2 / Fold change vs veh, TNKS2 / RFU, ZFP14 / Fold change vs veh, ZFP14 / RFU, ACTR2 / Fold change vs veh, ACTR2 / RFU, PPP3R1 / Fold change vs veh, PPP3R1 / RFU, PIK3R1 / Fold change vs veh, PIK3R1 / RFU, HNRNPA1 / Fold change vs veh, HNRNPA1 / RFU, RNF170 / Fold change vs veh, RNF170 / RFU, ZNF28 / Fold change vs veh, ZNF28 / RFU, RNGTT / Fold change vs veh, RNGTT / RFU, OGT / Fold change vs veh, OGT / RFU, BRD1 / Fold change vs veh, BRD1 / RFU, MARS / Fold change vs veh, MARS / RFU, ZNF655 / Fold change vs veh, ZNF655 / RFU, FAHD1 / Fold change vs veh, FAHD1 / RFU, BDP1 / Fold change vs veh, BDP1 / RFU, LRRCC1 / Fold change vs veh, LRRCC1 / RFU, ARID1A / Fold change vs veh, ARID1A / RFU, ZNF146 / Fold change vs veh, ZNF146 / RFU, ZNF330 / Fold change vs veh, ZNF330 / RFU, GPN3 / Fold change vs veh, GPN3 / RFU, C9orf123 / Fold change vs veh, C9orf123 / RFU, N4BP2L2 / Fold change vs veh, N4BP2L2 / RFU, ARFIP1 / Fold change vs veh, ARFIP1 / RFU, FAM179B / Fold change vs veh, FAM179B / RFU, BCL10 / Fold change vs veh, BCL10 / RFU, UHRF1BP1L / Fold change vs veh, UHRF1BP1L / RFU, BET1 / Fold change vs veh, BET1 / RFU, CNOT2 / Fold change vs veh, CNOT2 / RFU, ZNF268 / Fold change vs veh, ZNF268 / Fold change vs veh, ZNF507 / RFU, DGCR2 / Fold change vs veh, DGCR2 / RFU, WDSUB1 / Fold change vs veh, WDSUB1 / Fold change vs veh, HSP90B1 /// MIR3652 / RFU, ADSS / Fold change vs veh, ADSS / RFU, GK / Fold change vs veh, GK / RFU, ZNF148 / Fold change vs veh, ZNF148 / RFU, TAF9 / Fold change vs veh, TAF9 / RFU, SLC1A5 / Fold change vs veh, SLC1A5 / RFU, SLMO2 / Fold change vs veh, SLMO2 / RFU, ABCC4 / Fold change vs veh, ABCC4 / RFU, LOC101060439 /// RAP1B / Fold change vs veh, LOC101060439 /// RAP1B / RFU, RFX7 / Fold change vs veh, RFX7 / RFU, GTPBP10 / Fold change vs veh, GTPBP10 / RFU, CNEP1R1 / Fold change vs veh, CNEP1R1 / RFU, BIVM-ERCC5 /// ERCC5 / Fold change vs veh, BIVM-ERCC5 /// ERCC5 / RFU, ILF3 / Fold change vs veh, ILF3 / RFU 11762660_at / Fold change /veh 11762660_at / RFU VCAN (11757783_s_at) / Fold change /veh VCAN (11757783_s_at) / RFU DDX43 (11728927_at) / Fold change /veh DDX43 (11728927_at) / RFU KRT8 (11758188_x_at) / Fold change /veh KRT8 (11758188_x_at) / RFU NKD1 (11759106_at) / Fold change /veh NKD1 (11759106_at) / RFU SRD5A1 (11742802_a_at) / Fold change /veh SRD5A1 (11742802_a_at) / RFU TPSAB1 /// TPSB2 (11721975_s_at) / Fold change /veh TPSAB1 /// TPSB2 (11721975_s_at) / RFU GSTM3 (11746129_a_at) / Fold change /veh GSTM3 (11746129_a_at) / RFU IL23R (11737362_x_at) / Fold change /veh IL23R (11737362_x_at) / RFU TMEM51 (11727254_a_at) / Fold change /veh TMEM51 (11727254_a_at) / RFU PIWIL2 (11732686_x_at) / Fold change /veh PIWIL2 (11732686_x_at) / RFU ORM1 (11744905_x_at) / Fold change /veh ORM1 (11744905_x_at) / RFU CCDC152 (11743942_at) / Fold change /veh CCDC152 (11743942_at) / RFU ECM1 (11717891_a_at) / Fold change /veh ECM1 (11717891_a_at) / RFU IL23R (11748794_a_at) / Fold change /veh IL23R (11748794_a_at) / RFU TNFAIP8L3 (11732012_x_at) / Fold change /veh TNFAIP8L3 (11732012_x_at) / RFU MBOAT4 (11741988_at) / Fold change /veh MBOAT4 (11741988_at) / RFU 11764193_at / Fold change /veh 11764193_at / RFU TMEM53 (11763286_at) / Fold change /veh TMEM53 (11763286_at) / RFU MAGEB2 (11727129_at) / Fold change /veh MAGEB2 (11727129_at) / RFU TMEM200A (11744735_a_at) / Fold change /veh TMEM200A (11744735_a_at) / RFU CCDC152 (11751479_a_at) / Fold change /veh CCDC152 (11751479_a_at) / RFU FAM211A (11726209_a_at) / Fold change /veh FAM211A (11726209_a_at) / RFU RGS16 (11746705_a_at) / Fold change /veh RGS16 (11746705_a_at) / RFU VCAN (11755009_s_at) / Fold change /veh VCAN (11755009_s_at) / RFU RHOB (11743442_s_at) / Fold change /veh RHOB (11743442_s_at) / RFU RGS16 (11720943_a_at) / Fold change /veh RGS16 (11720943_a_at) / RFU RGS16 (11720944_at) / Fold change /veh RGS16 (11720944_at) / RFU, VPS4B / Fold change vs veh, VPS4B / RFU, CREB1 / Fold change vs veh, CREB1 / RFU, DNAJC13 / Fold change vs veh, DNAJC13 / RFU, GNAQ / Fold change vs veh, GNAQ / RFU, CDK5R1 / Fold change vs veh, CDK5R1 / RFU, ZRANB3 / Fold change vs veh, ZRANB3 / RFU, CUL4A / Fold change vs veh, CUL4A / RFU, CCNY / Fold change vs veh, CCNY / RFU, UFL1 / Fold change vs veh, UFL1 / RFU, COG3 / Fold change vs veh, COG3 / RFU, DIAPH2 / Fold change vs veh, DIAPH2 / RFU, SKA2 / Fold change vs veh, SKA2 / RFU, AFF3 / Fold change vs veh, AFF3 / RFU, LMF1 / Fold change vs veh, LMF1 / RFU, IPO11 / Fold change vs veh, IPO11 / RFU, DFFB / Fold change vs veh, DFFB / RFU, FOXP1 / Fold change vs veh, FOXP1 / RFU, CARD8 / Fold change vs veh, CARD8 / RFU, STRN3 / Fold change vs veh, STRN3 / RFU, ADK / Fold change vs veh, ADK / RFU, RASSF2 / Fold change vs veh, RASSF2 / RFU, WIPF1 / Fold change vs veh, WIPF1 / RFU, LARP1B / Fold change vs veh, LARP1B / RFU, RASA1 / Fold change vs veh, RASA1 / RFU, RB1 / Fold change vs veh, RB1 / RFU, PPFIA1 / Fold change vs veh, PPFIA1 / RFU, MAT2A / Fold change vs veh, MAT2A / RFU, CCT5 / Fold change vs veh, CCT5 / RFU, WDR92 / Fold change vs veh, WDR92 / RFU, CUX1 / Fold change vs veh, CUX1 / RFU, TTC7A / Fold change vs veh, TTC7A / RFU, TMEM135 / Fold change vs veh, TMEM135 / RFU, DEPTOR / Fold change vs veh, DEPTOR / RFU, CPM / Fold change vs veh, CPM / RFU, DNAJB6 / Fold change vs veh, DNAJB6 / RFU, CACNA2D3 / Fold change vs veh, CACNA2D3 / RFU, DTX4 / Fold change vs veh, DTX4 / RFU, TFCP2 / Fold change vs veh, TFCP2 / RFU, GMCL1 /// GMCL1P1 / Fold change vs veh, GMCL1 /// GMCL1P1 / RFU, AEBP2 / Fold change vs veh, AEBP2 / RFU, SNHG1 /// SNORD22 /// SNORD25 /// SNORD26 /// SNORD27 /// SNORD28 /// SNORD29 /// SNORD31 / Fold change vs veh, SNHG1 /// SNORD22 /// SNORD25 /// SNORD26 /// SNORD27 /// SNORD28 /// SNORD29 /// SNORD31 / Fold change (Aza/veh), C12orf56 (ProbeSet 11735607_a_at) / Fold change (ACY-1035/veh), C12orf56 (ProbeSet 11735607_a_at) / Fold change (Aza/veh), FGFR1OP (ProbeSet 11751329_s_at) / Fold change (ACY-1035/veh), FGFR1OP (ProbeSet 11751329_s_at) / Fold change (Aza/veh), VPS36 (ProbeSet 11739960_a_at) / Fold change (ACY-1035/veh), VPS36 (ProbeSet 11739960_a_at) / RFU SYPL1 (11715823_x_at) / Fold change /veh SYPL1 (11715823_x_at) / RFU IGFBP7 (11715501_s_at) / Fold change /veh IGFBP7 (11715501_s_at) / RFU REEP3 (11722064_at) / Fold change /veh REEP3 (11722064_at) / RFU IGLL1 (11728026_x_at) / Fold change /veh IGLL1 (11728026_x_at): dose or concentration left out as unconfirmed
Conditions: ProbeSet 11740011_at; LIST B

SMILES: Nc1ncn([C@@H]2O[C@H](CO)[C@@H](O)[C@H]2O)c(=O)n1 [azacitidine]
- Fold change vs veh, ZFP14: 0.92
